Measured values as given in US8946201B2, “Methods for inhibiting TGF-β” (Saint Louis University, priority 2007, dated 2015).

Key:
[1] = tested on: Smad2 phosphorylation stimulated by TGF-β1; experiment: TGF-β1-stimulated Smad2 phosphorylation, Western blot, Mv1Lu cells; assay type: cell-based, mink
Procedure: (§1) Cells were treated with increasing concentrations of cholesterol, as indicated (A, B, C), 50 μg protein/ml LDL (D), 5 μg protein/ml VLDL (D) or 50 μg/ml cholesterol (E) at 37° C. for 1 hr and then further incubated with 50 pM TGF-β1 for 30 min. Phosphorylated Smad2 (P-Smad2) and total Smad2 in the cell lysates were analyzed by 7.5% SDS-PAGE and followed by immunoblot analysis using anti-P-Smad2 and anti-Smad2 antibodies. A representative of a total of 3 analyses is shown (top). The quantitative analysis of the immunoblots is shown (bottom). […] Smad2 nuclear translocation was analyzed by indirect immunofluorescent staining using P-Smad2 antibody and rhodamine-labeled 2nd antibody (E). Rhodamine fluorescence represents P-Smad2 staining (a,b,c) whereas the nuclei were stained by DAPI staining (d,e,f).
(§2) Cells grown to near confluence on 12-well cluster dishes were treated with cholesterol or LDL in serum-free DMEM (vol.=0.5 ml/well) at 37° C. for 1 hr. […] Treated cells were lysed and cell lysates were analyzed by 7.5% SDS-PAGE and Western blot analysis using anti-Smad2, anti-P-Smad2, anti-caveolin-1, anti-TβR-I (alk5) or anti-TβR-II antibodies as described previously (30). […]
(§3) It has been reported that TGF-β responsiveness is determined by TGF-β partitioning between lipid raft/caveolae-mediated and clathrin-mediated endocytosis. […]

TβR-I and TβR-II = experiment: 125I-TGF-β1 affinity labeling, NRK cells; assay type: cell-based, rat; settings: 1 hr
Procedure: (B, C, D, E) Cells were treated with increasing concentrations of cholesterol in the presence (C) and absence (B, D, E) of 0.2% β-CD, as indicated. After 1 hr at 37° C., ^125I-TGF-β1 affinity labeling of TβR-I and TβR-II in cells was performed at 0° C. ^125I-TGF-β1 affinity-labeled TβR-I and TβR-II were analyzed by 7.5% SDS-PAGE and autoradiography or quantified with a PhosphoImager. A representative of a total of three analyses is shown (top). The bracket indicates the locations of ^125I-TGF-β affinity-labeled TβR-I and TβR-II. The relative intensities of ^125I-TGF-β1 affinity-labeled TβR-I and TβR-II in cells treated without cholesterol were taken as 100%. The quantitative data from three analyses is shown (bottom).
After cross-linking, cell lysates were analyzed by 7.5% SDS-PAGE and autoradiography or quantified by a PhosphoImager. For all experiments, cholesterol or cholesterol derivatives were prepared as the stock solution with a concentration of 25 mg/ml in ethanol. The final concentration of ethanol in the medium was 0.2% (by vol.).

PAI-1 expression = experiment: TGF-β1-induced PAI-1 expression, Northern blot, NRK cells; assay type: cell-based, rat; settings: 50 μg/ml, TGF-β1 2 to 100 pM
Procedure: (A, B, C, D, E, F) Cells were treated with 50 μg/ml cholesterol (A, B, C, D) and 50 μg/ml LDL (D) at 37° C. for 1 hr or with 1 μM fluvastatin or lovastatin (E) or several concentrations of fluvastatin (F) at 37° C. for 16 hr and then further incubated with increasing concentrations (as indicated) of TGF-β1 (A, B, C, E) or 50 pM TGF-β1 (D,F) for 2 hr. Northern blot analysis of PAI-1 and G3PDH was performed. A representative of a total of three analyses is shown (a). The relative intensities of the transcripts were quantified with a PhosphoImager. The ratio of the relative intensities of PAI-1 and G3PDH transcripts in cells treated without TGF-β1 and cholesterol, LDL or statins on the blot was taken as 1 fold or 100% of PAI-1 expression. The quantitative data from three independent analyses is shown (b). […] (G) Mv1Lu cells stably expressing a luciferase reporter gene driven by the PAI-1 promoter (MLECs-clone 32) were treated with increasing concentrations (as indicated) of cholesterol at 37 EC for 1 hr (a) or with 1 μM lovastatin at 37° C. for 16 hr (b) and then further incubated with 50 pM TGF-β for 7 hr. The luciferase activity in cells treated without cholesterol was taken as 100% (a). […] (H) Cells were incubated with 0.0625 and 0.125 pM TGF-β1 in the presence of increasing concentrations of cholesterol, as indicated. […] The experiments were carried out in triplicate.

[2] = tested on: Smad2 phosphorylation stimulated by TGF-β1; experiment: TGF-β1-stimulated Smad2 phosphorylation, Western blot, BAEC; assay type: cell-based, bovine; settings: 25 μg/ml, 37° C. 1 hr, then 50 pM TGF-β1 0.5 hr
Procedure: as §1, §2, §3

With `CC(C)CCC[C@@H](C)[C@H]1CC[C@H]2[C@@H]3CC=C4C[C@@H](O)CC[C@]4(C)[C@H]3CC[C@]12C` [cholesterol] the “suppression of Smad2 phosphorylation stimulated by TGF-β1” value ([1]; 25 μg/ml, 37° C. 1 hr, then 50 pM TGF-β1 0.5 hr, Mv1Lu cells) was 55%, the “effect on Smad2 phosphorylation” value ([1]; at concentrations of 6 or 10 μg/ml, Mv1Lu, BAEC, NRK cells (FIG. 1)) was “appreciably suppressed” and the “increase of 125I-TGF-β1 binding to TβR-I” value (TβR-I and TβR-II; 50 μg/ml) was roughly 5.7 fold. The “ratio of TβR-II/TβR-I” value (TβR-I and TβR-II; 50 μg/ml, 2.0 untreated) was 0.35, the “effect on binding of 125I-TGF-β1 to TβR-II” value (TβR-I and TβR-II; increasing concentrations) was “did not significant alter” and the “suppression of TGF-β1-stimulated PAI-1 expression” value (PAI-1 expression) was 60-65%. The “suppression of Smad2 phosphorylation stimulated by TGF-β1” value [2] was 90%.
